Data as given in patent publication US20260373175A1, “STABLE AST-3424 API PRODUCT, PREPARATION METHOD THEREFOR, AND STORAGE THEREOF” (ASCENTAWITS PHARMACEUTICALS, LTD., priority 2022, published 2026).
≈ marks a conversion by molar mass, not a printed value. Entries after “also recorded” stand apart in the source; their conditions may differ.

Assays:
Assay type in all cases: physicochemical
[1] = Stability of AST-3424 solutions (about 90 mg/mL) in different solvents, high-temperature destruction 40 °C, 3 days; details: dissolved in propylene glycol, compared with other solvents
[2] = Observation of viscosity of AST-3424 (FIG. 3); details: neat AST-3424, FIG. 3
Description: Therefore, it is inconvenient to transfer and sub-package it, and solvents are needed to reduce the viscosity thereof.

[3] = Accelerated stability experiment at 25±2 °C and 60±5% RH away from light; details: 25 °C, after 2 months
Description: (§1) The samples used for the stability study were inner-packaged in an HDPE bottle with a screw cap and outer-packaged in an LDPE bag with a pull button placed in a heat-sealing aluminum foil bag.
(§2) The water content (mass percentage), content, purity (chemical purity) and enantiomeric excess (e.e %) values were detected at 0, 1, 2, 3, 6, 9, 12, 18, 24, 36 and 42 months, respectively. The samples of batches 024101, 034101 and 044101 were used in the experiments.

[4] = Solubility test of AST-3424 in different solvents at 25 °C
Protocol: A proper amount of AST-3424 (hereinafter referred to as active pharmaceutical ingredient or API) was taken and placed into a proper container, a solvent was gradually added thereto, the mixture was uniformly shaken, the process of the solution changing from turbidity (excessive oil drops of AST-3424 exist) to clarification (AST-3424 is completely dissolved) was observed, the volume of the solvent for clarifying the mixed solution of AST-3424 was recorded, and the solubility was calculated.
In addition, water was further used for the experiment.

[5] = Long-term stability study at −20±5 °C and 5±3 °C away from light (HDPE bottle, LDPE bag, aluminum foil bag); details: pure API, current limited stability data
Description: as §1, §2

[6] = Stability of AST-3424 solutions (about 90 mg/mL) in different solvents, high-temperature destruction 40 °C, 3 days
Protocol: The AST-3424 solutions (contents were about 90 mg/mL) dissolved in different solvents were subjected to high-temperature destruction (40 °C, 3 days). The purity was detected. The destructed solutions were compared with samples not subjected to the destruction (40 °C, 3 days). The stability of AST-3424 in different solvents was examined.
Purity was determined by using an HPLC method:
Mobile phase: • A: 10 mmol/L ammonium acetate solution obtained by dissolving ammonium acetate in a mixed solvent of 95% water and 5% acetonitrile by volume ratio; and • B: 8 mmol/L ammonium acetate solution obtained by dissolving ammonium acetate in a mixed solvent of 95% acetonitrile and 5% water by volume ratio; and
A gradient elution was performed.

[7] = Choice of solvent during distillation in the preparation of AST-3424
Description: In the preparation of the AST-3424, in order to remove the solvent, water, etc., used in the preparation and separation processes by distillation as much as possible, the applicant mixes the oily AST-3424 product separated and purified with various common solvents (ethyl acetate, ethanol, methanol, etc.) and performs distillation under reduced pressure after the mixture is heated at a lower temperature. […] Therefore, ethanol is ultimately used through initial confirmation.

[8] = absolute ethanol, 40 °C, 3 days
[9] = propylene glycol, 40 °C, 3 days

## C[C@H](OP(=O)(N1CC1)N1CC1)c1ccc([N+](=O)[O-])c(Oc2cccc(C(=O)N(C)C)c2)c1 [AST-3424, (S)-1-(3-(3-N,N-dimethylaminocarbonyl)phenoxy-4-nitrophenyl)-1-ethyl-N,N′bis(ethylene)phosphoramidate]
[1]
  Viscosity: obviously higher viscosity; also recorded: high viscosity
[2]
  Physical state / viscosity: viscous oily substance
[3]
  Degradation: degraded rapidly
  Purity: less than 98%
[4]; ethanol, table cell continues '(mutually soluble)'
  Phenomenon (solubility in words): good solubilities; also recorded: good solubility and stability; also recorded: Very soluble
[4]; ethyl acetate, table cell continues '(mutually soluble)'
  Phenomenon (solubility in words): Very soluble
[4]; organic solvent or mixture, ethanol
  solubility: > 1000 mg/mL
[4]; organic solvent or mixture, ethyl acetate
  solubility: > 1000 mg/mL
[4]; organic solvent or mixture, propylene glycol
  solubility: > 100 mg/mL
[4]; propylene glycol, table cell continues 'soluble'
  Phenomenon (solubility in words): good solubilities; also recorded: good solubility and stability; also recorded: Freely
[4]; water
  solubility: ~20 mg/mL (≈ 43.4 mM)
[4]; water, table cell continues 'soluble'
  Phenomenon (solubility in words): sparingly soluble; also recorded: poor solubility and stability
[5]
  Stability compared with AST-3424 ethanol solution: better than that of the AST-3424 ethanol solution
[6]; 0 day (not subjected to destruction)
  Chemical purity: 99.3%
[6]; absolute ethanol
  Stability in solvent: stable; also recorded: good solubility and stability
[6]; [8]
  Chemical purity: 98.8%
  Content of AST-3424: 89.5 mg/mL
[6]; acetonitrile
  Stability in solvent: stable
[6]; acetonitrile, 40 °C, 3 days
  Chemical purity: 99.3%
  Content of AST-3424: 91.0 mg/mL
[6]; ethyl acetate
  Stability in solvent: stable
[6]; ethyl acetate, 40 °C, 3 days
  Chemical purity: 96.6%
  Content of AST-3424: 96.1 mg/mL
[6]; propylene glycol
  Stability in solvent: stable; also recorded: good solubility and stability
[6]; [9]
  Chemical purity: 96.8%
  Content of AST-3424: 83.5 mg/mL
[6]; water
  Stability in solvent: poor solubility and stability
[6]; water, 40 °C, 3 days
  Chemical purity: 75.4%
  Content of AST-3424: 89.2 mg/mL
[7]; ethanol
  solubility: almost infinitely dissolve
[7]; ethyl acetate
  solubility: not high enough
[7]; methanol
  solubility: good solubility
